# Reference: publication PMC11671014 (PLOS Pathogens, 2024)
# Several values for one entry are separate records, joined by “and”; a condition that tells them apart may be missing. Equal values may be shown once.
# Key:
# [1] = system: P. falciparum (3D7, ring stage) cultures; assay: P. falciparum 3D7 72-h growth inhibition, lactate dehydrogenase (PfLDH) assay; assay type: cell-based; details: Plasmodium falciparum, 72 h exposure
# Procedure: Routine analyses of antimalarial activity against P. falciparum 3D7 was tested by TCGLS (Kolkata, India) using the lactate dehydrogenase (PfLDH) growth inhibition assay as previously described. […] P. falciparum strain (3D7) was obtained from BEI Resources.
# [2] = system: HepG2 cells; assay: HepG2 72-h viability, CellTiter-Glo; assay type: cell-based; details: Homo sapiens, 72 h exposure
# Procedure: The HepG2 (Human hepatocyte carcinoma) cell line was procured from ATCC (American Type Culture Collection, Manassas, USA; HB-8065) and viability assessed using CellTiter-Glo luminescent cell viability assay reagents (Promega). For the assay, 2,000 cells/well were plated in 384-well plates 24 h prior to the experiment and incubated at 37°C in a CO2 incubator. The medium was removed; and cells were treated with fresh medium containing either vehicle (0.5% DMSO) or serially diluted compounds or doxorubicin (1.3 nM to 25 μM) in a final volume of 50 μL/well and further incubated for 72 h at 37°C in a CO2 incubator. […] Following incubation, 25 μL of medium was discarded and 25 μl of CellTiter-Glo reagent was added to each well and the plate was kept on a plate shaker for 15 min at 25°C with shaking at 300 rpm. Luminescence signals were measured in a PHERAstar FSX reader (BMG LABTECH).
# [3] = biological target: T1, NAE (NEDD8-activating enzyme) (Homo sapiens, UniProt Q8TBC4); assay: NAE E1-E2 transthiolation HTRF assay; assay type: biochemical
# T1 sequence (Q8TBC4 1-463): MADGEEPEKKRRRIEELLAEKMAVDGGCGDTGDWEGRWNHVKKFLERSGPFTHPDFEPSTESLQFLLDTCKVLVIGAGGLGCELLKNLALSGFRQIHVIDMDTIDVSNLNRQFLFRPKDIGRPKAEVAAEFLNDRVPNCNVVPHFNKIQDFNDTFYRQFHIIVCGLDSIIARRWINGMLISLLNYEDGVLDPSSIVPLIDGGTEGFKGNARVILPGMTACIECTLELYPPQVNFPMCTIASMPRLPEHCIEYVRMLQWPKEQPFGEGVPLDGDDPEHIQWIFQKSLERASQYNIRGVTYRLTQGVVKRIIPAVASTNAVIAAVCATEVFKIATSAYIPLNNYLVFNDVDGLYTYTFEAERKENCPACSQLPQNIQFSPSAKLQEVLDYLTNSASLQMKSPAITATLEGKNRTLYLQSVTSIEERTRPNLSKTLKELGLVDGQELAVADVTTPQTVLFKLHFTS
# T1 sequence (Q13564 1-534 partner): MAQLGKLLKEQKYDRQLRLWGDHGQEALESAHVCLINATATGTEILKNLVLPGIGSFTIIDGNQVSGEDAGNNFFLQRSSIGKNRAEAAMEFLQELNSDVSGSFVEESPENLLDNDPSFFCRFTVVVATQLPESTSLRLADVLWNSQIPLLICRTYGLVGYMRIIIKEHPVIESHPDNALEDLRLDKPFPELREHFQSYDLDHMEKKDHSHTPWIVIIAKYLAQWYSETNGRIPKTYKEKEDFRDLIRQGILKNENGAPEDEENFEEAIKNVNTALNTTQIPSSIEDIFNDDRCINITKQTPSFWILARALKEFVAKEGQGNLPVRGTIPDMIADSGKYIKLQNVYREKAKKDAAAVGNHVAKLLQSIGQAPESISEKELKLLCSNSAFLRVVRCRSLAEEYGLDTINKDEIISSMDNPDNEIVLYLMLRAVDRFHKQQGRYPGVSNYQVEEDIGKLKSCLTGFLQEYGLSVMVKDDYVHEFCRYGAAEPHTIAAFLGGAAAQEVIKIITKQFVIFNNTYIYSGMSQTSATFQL
# Text: An Homogeneous Time-Resolved Fluorescence (HTRF) enzyme assay was employed to evaluate compound activity against ATG7 as previously described. In this assay, a Flag-tagged ATG8 homolog (GABA type A receptor-associated protein; GABARAP) is activated by ATG7 and then transthiolated to a GST-tagged E2 (ATG3). The product of the enzyme reaction, Flag-GABARAP-ATG3-GST, is quantified by measuring FRET between Europium-Cryptate labelled monoclonal anti-Flag M2 (FLAG M2-Eu cryptate; Revvity, Cat# 61FG2KLB) and […] (Anti-GST IgG conjugated to SureLight-Allophycocyanin) (Revvity, Cat# AD0059G)). The activation and transthiolation of ubiquitin by UAE, activation and transthiolation of NEDD8 by NAE and activation and transthiolation of SUMO by SAE were all assayed in a similar fashion with appropriately tagged ubiquitin-like proteins and E2 conjugating enzymes as described.
# [4] = biological target: T2, PfTyrRS (Plasmodium falciparum, UniProt Q8IAR7); assay: ATP consumption by PfTyrRS (Kinase Glo); assay type: biochemical; details: PfTyrRS 25 nM, ATP 10 μM, tyrosine 200 μM, cognate tRNA^Tyr 4.8 μM, 37°C 1 h; read-out: Inhibition of PfTyrRS (Kinase Glo) IC50
# T2 sequence (Q8IAR7 entry or part of it): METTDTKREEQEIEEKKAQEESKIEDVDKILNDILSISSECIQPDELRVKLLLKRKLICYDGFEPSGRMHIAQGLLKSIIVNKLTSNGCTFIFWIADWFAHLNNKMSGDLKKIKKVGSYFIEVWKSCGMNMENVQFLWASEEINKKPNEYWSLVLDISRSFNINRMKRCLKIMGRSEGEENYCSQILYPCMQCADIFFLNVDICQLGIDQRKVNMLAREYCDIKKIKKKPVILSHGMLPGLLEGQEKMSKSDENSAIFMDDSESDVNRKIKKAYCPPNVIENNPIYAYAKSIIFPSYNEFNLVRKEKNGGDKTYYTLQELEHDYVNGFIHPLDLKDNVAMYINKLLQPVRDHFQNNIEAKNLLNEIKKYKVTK
# Procedure: Consumption of ATP was measured using a luciferase-based assay as per the manufacturer’s instructions (Kinase-Glo Luminescent Kinase Assay, Promega).
# [5] = biological target: T2, PfTyrRS; assay: Differential scanning fluorimetry (DSF) of PfTyrRS; assay type: binding; details: for ΔTm at 50 µM: 50 μM sulfamate, tyrosine, PftRNA^Tyr, 37°C 2 h, read-out: PfTyrRS binding (DSF) Delta Tm; for ΔTm at 50 µM / PfTyrRS Tm: ATP; for Kd: estimated from DSF with an irreversible thermal unfolding model, read-out: PfTyrRS binding (DSF) apparent KD; for PfTyrRS Tm: with sulfamate, tyrosine and tRNA, apo 49.9 ± 0.6
# Procedure: The effect on ML471 and analogues on the thermal stability of TyrRS enzymes was assayed as previously described. […] SYPRO Orange (Sigma-Aldrich; 5,000X concentrate in DMSO) was added to the reaction mixture at a final concentration of 5X. 25 μL of the sample was added into each well of a 96-well qPCR plate (Applied Biosystems). The plate was sealed and analysed using StepOnePlus Real-Time PCR system (Applied Biosystems). The samples were heated from 20°C to 90°C with a 1% continuous gradient. The thermal unfolding curve was plotted as the first derivative curve of the raw fluorescence values. The melting temperature (Tm), defined as the peak of the first derivative curve, was used to assess the thermal stability of protein-ligand complexes.
Structure (SMILES),IC50 [1] [µM],IC50 [2] [µM],IC50 [3] [µM],IC50 [4],ΔTm at 50 µM [5] [°C],Kd [5] [µM],PfTyrRS Tm [5] [°C],activity against NAE (in words) [3]
Nc1ncnc2c1c(C(F)(F)F)nn2[C@@H]1O[C@H](COS(N)(=O)=O)[C@@H](O)[C@H]1O [ML107],0.0042 ± 0.0005,2.52,75.3 ± 0.8,24 ± 5 µM,13.6 ± 0.6,0.0014,63.5 ± 0.4,–
Nc1ncnc2c1c(Oc1ccccc1)nn2[C@@H]1O[C@H](COS(N)(=O)=O)[C@@H](O)[C@H]1O [ML470],0.0448 ± 0.0082,> 50,> 100,41 ± 23 µM,15.7 ± 0.3,0.0006,65.5 ± 0.6,–
"CC(C)c1nn([C@@H]2O[C@H](COS(N)(=O)=O)[C@@H](O)[C@H]2O)c2ncnc(N)c12 [ML471, ((2R,3S,4R,5R)-5-(4-amino-3-isopropyl-1H-pyrazolo[3,4-d]pyrimidin-1-yl)-3,4-dihydroxytetrahydrofuran-2-yl)methyl sulfamate]",0.0015 ± 0.0002,> 50,> 100,1.4 ± 0.2 µM,18 ± 0.1,0.0002,67.9 ± 0.4,no or very little activity
CCOc1nn([C@@H]2O[C@H](COS(N)(=O)=O)[C@@H](O)[C@H]2O)c2ncnc(N)c12 [ML676],0.0028 ± 0.0002,22.4,66.6 ± 1.1,–,15.69 ± 0.01,0.0006,65.5 ± 0.6,–
CCc1nn([C@@H]2O[C@H](COS(N)(=O)=O)[C@@H](O)[C@H]2O)c2ncnc(N)c12 [ML681],0.0034 ± 0.0001,7.53,35.3 ± 0.8,23 ± 8 µM,16.4 ± 0.1,0.0004,66.3 ± 0.5,–
CC(C)Oc1nn([C@@H]2O[C@H](COS(N)(=O)=O)[C@@H](O)[C@H]2O)c2ncnc(N)c12 [ML723],0.0025 ± 0.0006,> 50,> 100,14 ± 5 µM,16.2 ± 0.1,0.0005,66.1 ± 0.7,–
Nc1ncnc2c1c(OC(F)F)nn2[C@@H]1O[C@H](COS(N)(=O)=O)[C@@H](O)[C@H]1O [ML901],0.0028 ± 0.0002,4.65,28 ± 0.6,13.4 µM and 13 µM,15.2 ± 0.1,0.0007,65.1 ± 0.5,–
